Source: patent publication US5792635A, “Method of inhibiting the sodium/proton exchanger NHE3 and method of inhibiting growth by administering squalamine” (priority 1995, dated 1998)
Entries after “also recorded” stand apart in the source; their conditions may differ.

What was measured:
[1] = tested on: bacteria, fungi and protozoa; details: in words; cited from earlier work
[2] = tested on: human coronary artery smooth muscle; assay: Proliferation of human coronary artery smooth muscle in vitro; type: cell-based; details: FIG. 15
From the text: Aminosterols of the invention may also have utility in inhibiting the growth factor mediated proliferation of smooth muscle within the artery. Following coronary angioplasty, reocclusion commonly occurs, secondary to reparative proliferation of the vascular smooth muscle within the wall of the surgically manipulated blood vessel. This process generally takes place over the course of 7-10 days. To evaluate whether an agent could prevent the growth factor mediated proliferation of smooth muscle within the artery, compound 1436 was evaluated in vitro for its effect on the proliferation of human coronary artery smooth muscle. Results for compound 1436 are shown in FIG. 13, and those for squalamine are shown in FIG. 14, with FIG. 15 being a composite logarithmic plot.

melanoma 1205Lu = assay: Suppression of growth of human melanoma 1205Lu in RAG-1 mice; type: in vivo, mouse (human tumor)
From the text: As apparent from FIG. 5, melanoma 1205Lu develops aggressively in RAG-1 mice after implantation.

[3] = tested on: vitelline capillaries of 3- to 5-day chick embryo; assay: Chick embryo vitelline capillary regression assay; type: in vivo
Experimental: Using the chick embryo vitelline capillaries assay, compounds were tested for their ability to induce capillary regression. Each compound was applied in 0.1 ml of 15% Ficol 400 and PBS onto the embryo, and vascular regression was assessed after 60 minutes.
The 3-day chick embryo consists of an embryonic disc from which numerous vessels emerge and return, forming a "figure 8"-shaped structure--the embryo in the center with vascular loops extending outward over both poles. […] Following a lag period of around 15 minutes, the constriction of continuity between capillary and secondary vessels, generally on the "venous" side, was observed. Continued pulsatile blood flow progressed, resulting in a "swelling" of the blind tube, followed by a pinching off of the remaining connection and formation of an enclosed vascular sac resembling a "blood island." This process progressed until only the largest vessels remained intact.

B16 = assay: Cytostatic activity against B16 in culture; type: cell-based, murine; details: except at very high concentrations
human NHE1 = assay: Inhibition of NHE1 in PS120 fibroblasts transfected with human NHE1, internal pH by BCECF-AM; type: cell-based; details: 5 μg/ml; acid-preloaded; FIG. 2B
Experimental: (§1) PS120 fibroblasts transfected with rabbit or human NHE1 were grown as described above.

rabbit NHE1 = assay: Inhibition of NHE1 in PS120 fibroblasts transfected with rabbit NHE1, internal pH by BCECF-AM; type: cell-based; details: 5 μg/ml; acid-preloaded; FIG. 2A
Experimental: as §1

B16 melanoma [4] = assay: Suppression of growth of B16 melanoma in C57B mice; type: in vivo, mouse
Experimental: The growth of B16 melanoma in C57B mice is dependent upon neovascularization.
Using the growth of B16 melanoma cells in C57B mice, a recognized model for the evaluation of inhibitors of angiogenesis on the growth of cancers, the effects of subcutaneous, intraperitoneal and oral administration of squalamine were evaluated.

B16 melanoma [5] = assay: Synergistic inhibition of tumor growth, B16 melanoma in mice; type: in vivo, mouse; details: squalamine 15 mg/kg/day; compound 1436 tolerable schedule
Experimental: Based on the idea that tumor growth involves both the clonal expansion of a malignant cell along with the development of a supporting vascular supply, a combination of compound 1436 with squalamine was tested to determine whether it would achieve a synergistic effect on solid tumor growth. This concept was evaluated in the B16 melanoma model.
Animals were implanted with B16 melanoma followed by treatment with compound 1436 or 1256 administered in a combined schedule or separately. […] Thus, a combination of these two compounds achieves a therapeutic benefit in tumors dependent on neovascularization that may prevent metastatic spread.

rabbit NHE3 = rabbit NHE3 (Oryctolagus cuniculus, UniProt P26432); details: 5 μg/ml
rabbit NHE3, sequence (P26432 30-832): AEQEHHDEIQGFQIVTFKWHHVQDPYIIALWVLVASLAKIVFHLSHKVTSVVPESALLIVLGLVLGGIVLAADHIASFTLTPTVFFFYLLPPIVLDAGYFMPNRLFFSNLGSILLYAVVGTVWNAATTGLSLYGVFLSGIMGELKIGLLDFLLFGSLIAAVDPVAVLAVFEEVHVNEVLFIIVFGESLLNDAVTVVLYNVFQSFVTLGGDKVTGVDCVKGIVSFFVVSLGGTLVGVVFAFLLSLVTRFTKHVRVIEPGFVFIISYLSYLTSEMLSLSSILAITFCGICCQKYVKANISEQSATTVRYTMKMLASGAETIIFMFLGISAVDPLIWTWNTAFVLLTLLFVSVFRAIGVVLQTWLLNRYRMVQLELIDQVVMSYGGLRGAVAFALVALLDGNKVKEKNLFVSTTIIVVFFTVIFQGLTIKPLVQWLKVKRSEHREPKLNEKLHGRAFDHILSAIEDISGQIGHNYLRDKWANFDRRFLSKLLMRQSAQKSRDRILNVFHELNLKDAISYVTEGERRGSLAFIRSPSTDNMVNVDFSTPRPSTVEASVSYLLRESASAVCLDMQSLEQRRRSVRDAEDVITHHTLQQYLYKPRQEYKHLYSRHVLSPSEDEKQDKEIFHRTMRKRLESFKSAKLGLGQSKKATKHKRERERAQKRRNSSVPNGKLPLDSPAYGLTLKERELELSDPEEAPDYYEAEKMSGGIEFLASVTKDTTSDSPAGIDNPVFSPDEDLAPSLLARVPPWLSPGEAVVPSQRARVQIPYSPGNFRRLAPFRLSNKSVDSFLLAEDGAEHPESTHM
Experimental: Internal pH was measured either following acid loading or in the absence of an acid-loading challenge, with the results shown in FIGS. 1A and 1B.
Specifically, PS120 fibroblasts transfected with rabbit NHE3 were grown in supplemented Dulbecco's-modified Eagle's medium as described by Levine et al., J. Biol. Chem. 268, 1993, 25527-25535. […] For cells not acid-preloaded, the actual internal pH value was monitored as a function of time following addition of squalamine, with the results depicted in FIG. 1B.
PS120 fibroblasts transfected with rabbit NHE3 were grown and acid preloaded by exposure to 40 mM NH4 Cl as described above in conjunction with FIGS. 1A and 1B. Internal cellular pH changes expressed as the rate of pH recovery as a function of restored extracellular sodium ion concentration following exposure to 10 μg/ml of the compound were assayed with the fluorescent dye BCECF-AM as described above.

human T-cells = assay: Inhibition of PHA-stimulated human lymphocytes; type: cell-based; details: 10 μg/ml
From the text: Results are tabulated below.

Xenopus tadpoles = assay: Tadpole assay; details: 10 μg/ml
[6] = tested on: human umbilical venous endothelial cells; assay: LPS-/TNF-α-induced neutrophil adherence; type: cell-based; details: 10 μg, 1.0 μg, or 0.1 μg; three different subjects
From the text: Methods 109, 1988, 175-184.

[7] = tested on: chick chorioallantoic membrane; assay: Chorioallantoic membrane (CAM) model, inhibition of capillary growth; type: in vivo
From the text: The growing capillaries within the chorioallantoic membrane model (CAM model) have been used as a system in which to evaluate the effect of agents on their potential to inhibit new vessel growth. Neovascularization occurs most aggressively over the first week of embryonic development. Thereafter capillary growth is characterized by principally "elongation" rather than "de novo" formation.
In the standard assay, agents are applied locally to a region of the embryo over which neovascularization will occur. Agents are assessed by their ability to inhibit this process, as evaluated by visual examination about 7 days after application. […] The assay utilized is described in detail in Auerbach et al., Pharm. Ther. 51, 1991, 1-11.

CC(C)[C@@H](CC[C@@H](C)[C@H]1CC[C@H]2[C@@H]3[C@H](O)C[C@H]4C[C@@H](NCCCNCCCCN)CC[C@]4(C)[C@H]3CC[C@]12C)OS(=O)(=O)O [Squalamine]
antibiotic activity [1]: broad-spectrum antibiotic, killing bacteria, fungi and protozoa | suppression of growth of human coronary artery smooth muscle [2]: suppress in vitro the growth of human coronary artery smooth muscle | suppression of melanoma 1205Lu growth (melanoma 1205Lu; 10, 20, 40 mg/kg/d, FIG. 5): suppress the growth of melanoma 1205Lu in RAG-1 mice in a dose-dependent fashion | reversibility after cessation of treatment (melanoma 1205Lu; RAG-1 mice): reversible | effect on vitelline capillaries ([3]; 3- to 5-day chick embryos): disrupt vitelline capillaries | lag period before constriction between capillary and secondary vessels ([3]; 3-day chick embryo): around 15 minutes | activity in vitelline capillary regression assay ([3]; Table 5): especially active | embryonic heart beat ([3]; chick embryo): continued to beat vigorously | hemorrhage ([3]; chick embryo): No hemorrhage was seen | hemolysis ([3]; chick embryo, microscopic): absence of hemolysis | cytostatic activity against B16 in culture (B16): minimal cytostatic activity | inhibitory activity against human NHE1 (human NHE1): no inhibitory activity | inhibitory activity against rabbit NHE1 (rabbit NHE1): no inhibitory activity | body weight and hematologic parameters (B16 melanoma [4]; B16-bearing C57B mice): no significant depression | suppression of B16 tumor volume (B16 melanoma [4]; intraperitoneal, FIG. 4B): dose-dependent suppression of tumor volume | suppression of B16 tumor volume (B16 melanoma [4]; oral, FIG. 4C): dose-dependent suppression of tumor volume | suppression of B16 tumor volume (B16 melanoma [4]; subcutaneous, FIG. 4A): dose-dependent suppression of tumor volume | effect of single agent versus combination (B16 melanoma [5]): Neither administration of squalamine at 15 mg/kg/day nor compound 1436 alone in a tolerable schedule could achieve this effect | inhibition of NHE3 (Km and Vmax) (rabbit NHE3; FIG. 1A, 1B): inhibited NHE3 with respect to proton concentration at both Km and Vmax levels | resting internal pH (rabbit NHE3; not acid-preloaded, FIG. 1B): the resting pH of these cells was also inhibited | inhibition of blast transformation, in words (human T-cells): Some effect | death / lethality time (Xenopus tadpoles): ≤ 2 h | observed response in tadpole (Xenopus tadpoles; stage 59-60 Xenopus): blood flow through the capillaries of the tail shut down; also recorded: unaltered blood flow through the fine capillaries of the hands and feet; also recorded: common vascular occlusive effect; also recorded: Vascular occlusion in fine capillaries of tail. No effect on vascular flow through hands or feet | inhibition of neutrophil adherence [6]: no inhibition | positive (fraction printed under Percentage positive) ([7]; 13-day embryo, 5.0 μg applied): 0/26 | anti-angiogenic activity in CAM ([7]; in words): potent but specific inhibitory activity, equal in potency to the most active compounds described to date in the literature | inhibitory effect on 13-day chick ([7]; ten times 0.65 μg, 13-day old chick): no inhibitory effect
